Results taken from ChEMBL document CHEMBL2046314, “Chlorine atom substitution influences radical scavenging activity of 6-chromanol” (Bioorg Med Chem, 2012).

Tests used:
[1] = Dissociation constant, pKa of the compound by UV-visible absorption spectroscopy; assay type: physicochemical
[2] = Antioxidant activity assessed as second order rate constant for galvinoxyl radical scavenging activity in acetonitrile solution by UV-visible absorption spectroscopy; assay type: functional
[3] = Hydroxyl radical scavenging activity assessed as reduction of DMPO-OH adduct formation using Fenton reaction by ESR spectroscopy; assay type: functional

Structure (SMILES) | pKa [1] | Activity [2] [M⁻¹ s⁻¹] | Activity [3]
CC1(C)CCc2c(Cl)c(O)c(Cl)c(Cl)c2O1 | 7.1 | 54 | Dose-dependent effect
CC1(C)CCc2c(cc(Cl)c(O)c2Cl)O1 | 7.7 | 67 | Dose-dependent effect
CC1(C)CCc2c(ccc(O)c2Cl)O1 | 8.6 | 37 | Dose-dependent effect
CC1(C)CCc2cc(O)cc(Cl)c2O1 | 9.8 | 21 | Dose-dependent effect

More lines, main results first:

pKa [1] | Structure (SMILES) | Activity [2] [M⁻¹ s⁻¹] | Activity [3]
10.3 | CC1(C)CCc2cc(O)ccc2O1 | 98 | Dose-dependent effect
9.1 | CC1(C)CCc2cc(O)c(Cl)cc2O1 | 42 | Dose-dependent effect
